Here are results for eleven compounds from patent US5378844A, “8-(1-aminocycloalkyl)-1,3-dialkylxanthine derivatives, preparation process and antidepressant, nootropic and psychostimulant composition thereoff” (Biomedica Foscama Industria Chimico-Farmaceutica S.p.A., priority 1992, dated 1995).

Read-outs that look alike come from different tables or passages of the source.

As a reminder, the ED50 is the midpoint of the dose-response relation. What is called Ki is a measure of affinity in units of concentration, obtained from inhibition or displacement.

Assay [1] deals with White male CD 1 (Charles River) mice. In words: Nootropic activity: "Passive avoidance" test (amnesia induced by scopolamine). The assay is classed as in vivo. The note with it: scopolamine 2 mg/kg i.p.
The test system of assay [2] is Male Wistar (Charles River) rats. In words: Locomotor activity: "Activity cage" test. It is filed as in vivo. The note with it: Rattus norvegicus, ip, read-out: DE50 (ED50 for % increase of spontaneous motion activity). The text has this:
This test allows the spontaneous locomotor activity of the animal to be studied. Male Wistar (Charles River) rats weighing 150-250 g were used. […] The printer connected to the system records the number of movements performed by the rats within the first 5' from the moment they enter the cage.

In assay [3] the test system is White male CD 1 (Charles River) mice. In words: Antidepressant activity: "Behavioral despair" test (Porsolt). The assay is classed as in vivo. As to conditions: relative to control group. The protocol: The test described in R. D. Porsolt et al., Arch.Int.Pharmacodyn. 229, 327 (1977), which allows the antidepressant activity of a drug to be evaluated on an animal placed in an unusual, stress-causing environment, such as the water environment, was carried out. White male CD 1 (Charles River) mice weighing 24-35 g were used.
1 h before the immersion in water, the animal is administered the test compound by the intraperitoneal (i.p.) route. […] As the reference substances the xanthines theophylline and caffeine, the nootropically acting drug oxiracetam and the tricyclic antidepressant desipramine were included.

In assay [4] the test system is Male white CD 1 (Charles River) mice. In words: Antidepressant activity: antagonism to reserpine (hypothermia induced by reserpine). The assay is classed as in vivo. The note with it: 4 h after reserpine 2.5 mg/kg i.p. The protocol: Male white CD 1 (Charles River) mices weighing 23-35 g were used. Before every test, the basal rectal temperature of every mouse is registered. […] The rectal temperature is measured again at t=O and 30', 60', 90' and 120' after administration of the drug.

The next assay deals with T1, adenosine A1 receptors (Rattus norvegicus, UniProt P25099).
T1 construct: preparations of sinaptosomial membranes from rat brain; from tissue; host or cells: rat brain synaptosomal membranes
T1 sequence (P25099 1-326): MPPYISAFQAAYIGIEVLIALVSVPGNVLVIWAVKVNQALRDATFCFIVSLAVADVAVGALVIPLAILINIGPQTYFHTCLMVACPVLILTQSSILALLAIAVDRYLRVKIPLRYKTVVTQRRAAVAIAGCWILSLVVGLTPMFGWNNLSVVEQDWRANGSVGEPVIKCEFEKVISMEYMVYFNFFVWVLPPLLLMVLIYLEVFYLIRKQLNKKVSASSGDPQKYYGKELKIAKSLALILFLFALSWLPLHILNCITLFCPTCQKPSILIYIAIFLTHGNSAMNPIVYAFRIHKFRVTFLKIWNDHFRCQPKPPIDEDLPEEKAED
In words: Binding to the adenosine A1 receptors, (3H)-DPCPX displacement, synaptosomal membranes from rat brain. As to conditions: for Ki: rat brain synaptosomal membranes, 0.3 nM (3H)-DPCPX, 1 h at 25° C., pH 7.4, Ki from IC50 via Cheng-Prusoff. The protocol:
The receptor binding tests were carried out on preparations of sinaptosomial membranes from rat brain. Binding to the A1 receptors has been carried out as follows: 200 μg of membrane proteins were incubated for 1 h at 25° C. with the test substance and 0.3 nM (3H)-DPCPX in 400 μl of 50 mM tris-HCl pH=7.4. The non-specific binding was determined with 20 μM R-PIA. The binding to the A2 receptors was carried out by incubating 200 μg of membrane proteins for 1 h at 25° C. with the test substance, 4 nM (3H)-NECA and 50 nM CPA. The non-specific binding was determined with 200 μM CPA. The incubations were blocked by centrifugal methods and the separation of the bound from free material was carried out, followed by determination of the contained radioactivity by liquid scintillation. The dosis-inhibition curves were obtained by assaying the receptor displacement at 14 different concentrations of the test substance (all the tests are carried out in triplicate). The tested substances were dissolved into dimethylsulfoxide and diluted in 50 mM Tris-HCl, buffer pH=7.4. The IC50 values were determined by means of non-linear regression curves and transformed into Ki values according to the Cheng-Prusoff equation.

The target in another assay is T2, adenosine A2 receptors (Rattus norvegicus, UniProt P30543).
T2 construct: preparations of sinaptosomial membranes from rat brain; from tissue; host or cells: rat brain synaptosomal membranes
T2 sequence (P30543 whole entry): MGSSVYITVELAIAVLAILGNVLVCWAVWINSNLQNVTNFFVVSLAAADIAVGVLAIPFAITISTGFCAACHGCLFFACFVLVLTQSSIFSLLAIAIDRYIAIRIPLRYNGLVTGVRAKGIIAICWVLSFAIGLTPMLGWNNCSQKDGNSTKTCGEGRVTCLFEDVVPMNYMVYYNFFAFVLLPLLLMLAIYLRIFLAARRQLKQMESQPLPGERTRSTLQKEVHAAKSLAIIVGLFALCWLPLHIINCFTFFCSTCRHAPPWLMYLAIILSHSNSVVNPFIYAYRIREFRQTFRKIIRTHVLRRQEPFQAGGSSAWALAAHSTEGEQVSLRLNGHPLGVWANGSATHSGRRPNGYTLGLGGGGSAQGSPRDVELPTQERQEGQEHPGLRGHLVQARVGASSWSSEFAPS
In words: Binding to the adenosine A2 receptors, (3H)-NECA + 50 nM CPA, synaptosomal membranes from rat brain. The note with it: 4 nM (3H)-NECA and 50 nM CPA, 1 h at 25° C., Ki from IC50 via Cheng-Prusoff. How it is done: The receptor binding tests were carried out on preparations of sinaptosomial membranes from rat brain.
200 μg of membrane proteins were incubated for 1 h at 25° C. with the test substance and 0.3 nM (3H)-DPCPX in 400 μl of 50 mM tris-HCl pH=7.4. The non-specific binding was determined with 20 μM R-PIA. The binding to the A2 receptors was carried out by incubating 200 μg of membrane proteins for 1 h at 25° C. with the test substance, 4 nM (3H)-NECA and 50 nM CPA. The non-specific binding was determined with 200 μM CPA.
The incubations were blocked by centrifugal methods and the separation of the bound from free material was carried out, followed by determination of the contained radioactivity by liquid scintillation. The dosis-inhibition curves were obtained by assaying the receptor displacement at 14 different concentrations of the test substance (all the tests are carried out in triplicate). The tested substances were dissolved into dimethylsulfoxide and diluted in 50 mM Tris-HCl, buffer pH=7.4. The IC50 values were determined by means of non-linear regression curves and transformed into Ki values according to the Cheng-Prusoff equation.

Setting [5] is: dose 10 (unit not given), i.p. 1 h before acquisition trial.
The mark [6] stands for this setting: 30' before activity cage, movements within first 5', relative to control group.
Where [7] appears, read: 10 mg/kg i.p., 1 h before immersion.

For `Cn1c(=O)c2[nH]c(-c3ccccc3)nc2n(C)c1=O` [8-PHENYLTHEOPHYLINE], the “ANTIAMNESIC ACTIVITY (percentage of animals that do not trespass the door)” value in assay [1] (setting [5]) came out at 40%. For the same compound, the ED50 in assay [2] (setting [6]) amounted to 6.01 mg/kg.

Take `Cn1c(=O)c2c(ncn2C)n(C)c1=O` [CAFFEINE]: the “ANTIAMNESIC ACTIVITY (percentage of animals that do not trespass the door)” value in assay [1] (setting [5]) turned out to be 60%. Besides, the “% VARIATION OF MOTI[…] LENGTH” value in assay [3] (25 mg/kg (os)) was -30.34%. The “Δ TEMPERATURE (maximum temperature variation relative to t=0)” value in assay [4] (20 mg/kg i.p.) is “+1.63 °C”. In assay [2], the ED50 stood at 4.33 mg/kg.

Take `CCCn1c(=O)c2[nH]c(C3(N)CCCC3)nc2n(CCC)c1=O` [COMPOUND EX. 1, 8-(1-aminocyclopentyl)-1,3-dipropylxanthine]: the Ki at adenosine A1 receptors was 0.026 µM; on adenosine A2 receptors, 54.6 µM. Moreover, on adenosine A1 receptors (ratio of Ki,A2 to Ki,A1), the “SELECTIVITY (A2/A1)” value was determined as 2100. For the same compound, in assay [1] (setting [5]), the “ANTIAMNESIC ACTIVITY (percentage of animals that do not trespass the door)” value is on record as 80%. For the same compound, the “% VARIATION OF MOTIONLESSNESS TIME LENGTH” value is on record as -28.33% in assay [3] (setting [7]) and -42.93% in assay [3] (20 mg/kg i.p., 1 h before immersion). Moreover, the “Δ TEMPERATURE (maximum temperature variation relative to t=0)” value in assay [4] (10 mg/kg i.p.) is “+0.26 °C”; in assay [4] (20 mg/kg i.p.), “+0.71 °C”. Besides, the ED50 in assay [2] (setting [6]) was 0.492 mg/kg.

`CCCn1c(=O)c2[nH]c(C3(NC(=O)c4ccccc4)CCCC3)nc2n(CCC)c1=O` [COMPOUND EX. 6, 8-(1-benzoylaminocyclopentyl)-1,3-dipropylxanthine] showed a Ki at adenosine A1 receptors of 0.115 µM. For the same compound, in assay [3] (setting [7]), the “% VARIATION OF MOTIONLESSNESS TIME LENGTH” value is given as -24.22%.

Turning to `CCCn1c(=O)c2[nH]c(C3(NS(C)(=O)=O)CCCC3)nc2n(CCC)c1=O` [COMPOUND EX. 8, 1,3-dipropyl-8-(1-methanesulfonylaminocyclopenthyl)xanthine], the Ki at adenosine A1 receptors amounted to 0.166 µM.

`CCCn1c(=O)c2[nH]c(C3(NC(=O)OCC)CCCC3)nc2n(CCC)c1=O` [COMPOUND EX. 10, 1,3-dipropyl-8-(1(N-ethoxycarbonylamino)cyclopentyl)xanthine]: the Ki at adenosine A1 receptors turned out to be 0.108 µM.

In the case of `CCCn1c(=O)c2[nH]c(C3(NC(=O)CC(=O)O)CCCC3)nc2n(CCC)c1=O` [COMPOUND EX. 12, 1,3-dipropyl-8-(1-emimalonamidocyclopentyl)xanthine], the Ki at adenosine A1 receptors worked out at 6.99 µM.

Turning to `CNCCCN1c2ccccc2CCc2ccccc21` [DESIPRAMINE], the “ANTIAMNESIC ACTIVITY (percentage of animals that do not trespass the door)” value in assay [1] (dose 45 (unit not given), i.p. 1 h before acquisition trial) is reported as 30%. In addition, the “% VARIATION OF MOTIONLESSNESS TIME LENGTH” value in assay [3] (15 mg/kg i.p.) is listed as -24.50%. The “Δ TEMPERATURE (maximum temperature variation relative to t=0)” value in assay [4] (16 mg/kg i.p.) is “+1.39 °C”.

Regarding `CNCCC=C1c2ccccc2CCc2ccccc21` [NORTRIPTYLINE], in assay [4] (10 mg/kg i.p.), the “Δ TEMPERATURE (maximum temperature variation relative to t=0)” value was “+2.34 °C”.

As for `NC(=O)CN1CC(O)CC1=O` (stereo not drawn) [OXIRACETAM], the “ANTIAMNESIC ACTIVITY (percentage of animals that do not trespass the door)” value in assay [1] (dose 1000 (os) (unit not given)) is on record as 40%. For the same compound, the “% VARIATION OF MOTIONLESSNESS TIME LENGTH” value in assay [3] (500 mg/kg i.p.) is reported as -29.07%.

Regarding `Cn1c(=O)c2[nH]cnc2n(C)c1=O` [THEOPHYLLINE, 1,3-dimethylxanthine], the “ANTIAMNESIC ACTIVITY (percentage of animals that do not trespass the door)” value in assay [1] (dose 20 (unit not given), i.p. 1 h before acquisition trial) is reported as 30%. Besides, in assay [3] (18.7 mg/kg (os)), the “% VARIATION OF MOTI[…] LENGTH” value is recorded as -48.88%. For the same compound, the “Δ TEMPERATURE (maximum temperature variation relative to t=0)” value in assay [4] (20 mg/kg i.p.) was “+0.81 °C”. Besides, in assay [2], the ED50 was roughly 3.75 mg/kg.
